Measured values from patent US7118895B2, “Process for producing aglycon by using diglycosidase and flavor-improved food containing the aglycon and converting agent to be used in the process” (Amano Enzyme Inc., priority 2000, dated 2006).

Test system: Crude diglycosidase
Assay: Examination of temperature in the conversion into isoflavone aglycons by diglycosidase using soybean materials
Assay type: biochemical, Penicillium multicolor IAM7153
Parameters: Decomposition efficiency of glycitin family in roasted soy flour / Decomposition efficiency of daidzin family in roasted soy flour / Decomposition efficiency of genistin family in soymilk / Decomposition efficiency of daidzin family in soymilk / Decomposition efficiency of glycitin family in defatted soybean / Decomposition efficiency of daidzin family in defatted soybean: concentration or dose not given beside the values
Outline: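 Temperature series (30-80° C.) of crude diglycosidase, diluted to 1.88 AU/mL in 20 mM acetate pH 4.0, acting on roasted soy flour, soymilk, defatted soybean or soy protein concentrate. Samples quenched with ethanol after 0-6 h, centrifuged, filtered and analyzed by HPLC for glycosides versus aglycons.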

[1] = 30° C., heat treatment of enzyme no, reaction time 0 h
[2] = 30° C., heat treatment of enzyme no, reaction time 1 h
[3] = 30° C., heat treatment of enzyme no, reaction time 3 h
[4] = 30° C., heat treatment of enzyme no, reaction time 6 h
[5] = 30° C., heat treatment of enzyme yes, reaction time 6 h
[6] = 30 °C, heat treatment of enzyme: no, 0 h
[7] = 30 °C, heat treatment of enzyme: no, 1 h
[8] = 30 °C, heat treatment of enzyme: no, 3 h
[9] = 30 °C, heat treatment of enzyme: no, 6 h
[10] = 30 °C, heat treatment of enzyme: yes, 6 h
[11] = 45° C., heat treatment of enzyme no, reaction time 0 h
[12] = 45° C., heat treatment of enzyme no, reaction time 1 h
[13] = 45° C., heat treatment of enzyme no, reaction time 3 h
[14] = 45° C., heat treatment of enzyme no, reaction time 6 h
[15] = 45° C., heat treatment of enzyme yes, reaction time 6 h
[16] = 45 °C, heat treatment of enzyme: no, 0 h
[17] = 45 °C, heat treatment of enzyme: no, 1 h
[18] = 45 °C, heat treatment of enzyme: no, 3 h
[19] = 45 °C, heat treatment of enzyme: no, 6 h
[20] = 45 °C, heat treatment of enzyme: yes, 6 h
[21] = 55° C., heat treatment of enzyme no, reaction time 0 h
[22] = 55° C., heat treatment of enzyme no, reaction time 1 h
[23] = 55° C., heat treatment of enzyme no, reaction time 3 h
[24] = 55° C., heat treatment of enzyme no, reaction time 6 h
[25] = 55° C., heat treatment of enzyme yes, reaction time 6 h
[26] = 55 °C, heat treatment of enzyme: no, 0 h
[27] = 55 °C, heat treatment of enzyme: no, 1 h
[28] = 55 °C, heat treatment of enzyme: no, 3 h
[29] = 55 °C, heat treatment of enzyme: no, 6 h
[30] = 55 °C, heat treatment of enzyme: yes, 6 h
[31] = 65° C., heat treatment of enzyme no, reaction time 0 h
[32] = 65° C., heat treatment of enzyme no, reaction time 1 h
[33] = 65° C., heat treatment of enzyme no, reaction time 3 h
[34] = 65° C., heat treatment of enzyme no, reaction time 6 h
[35] = 65° C., heat treatment of enzyme yes, reaction time 6 h
[36] = 65 °C, heat treatment of enzyme: no, 0 h
[37] = 65 °C, heat treatment of enzyme: no, 1 h
[38] = 65 °C, heat treatment of enzyme: no, 3 h
[39] = 65 °C, heat treatment of enzyme: no, 6 h
[40] = 65 °C, heat treatment of enzyme: yes, 6 h
[41] = 80° C., heat treatment of enzyme no, reaction time 0 h
[42] = 80° C., heat treatment of enzyme no, reaction time 1 h
[43] = 80° C., heat treatment of enzyme no, reaction time 3 h
[44] = 80° C., heat treatment of enzyme no, reaction time 6 h
[45] = 80° C., heat treatment of enzyme yes, reaction time 6 h
[46] = 80 °C, heat treatment of enzyme: no, 0 h
[47] = 80 °C, heat treatment of enzyme: no, 1 h
[48] = 80 °C, heat treatment of enzyme: no, 3 h
[49] = 80 °C, heat treatment of enzyme: no, 6 h
[50] = 80 °C, heat treatment of enzyme: yes, 6 h

## O=c1c(-c2ccc(O)cc2)coc2cc(O[C@@H]3O[C@H](CO)[C@@H](O)[C@H](O)[C@H]3O)cc(O)c12 [genistin]
[1]
  Decomposition efficiency of genistin family in concentrated soybean protein: 49.8%
  Decomposition efficiency of genistin family in defatted soybean: 38.0%
[2]
  Decomposition efficiency of genistin family in concentrated soybean protein: 41.1%
  Decomposition efficiency of genistin family in defatted soybean: not detected
[3]
  Decomposition efficiency of genistin family in concentrated soybean protein: 30.3%
  Decomposition efficiency of genistin family in defatted soybean: not detected
[4]
  Decomposition efficiency of genistin family in concentrated soybean protein: 19.7%
  Decomposition efficiency of genistin family in defatted soybean: 7.6%
[5]
  Decomposition efficiency of genistin family in concentrated soybean protein: 51.8%
  Decomposition efficiency of genistin family in defatted soybean: not detected
[6]
  Decomposition efficiency of genistin family in roasted soy flour: 49.7%
  Decomposition efficiency of genistin family in soymilk: 30.7%
[7]
  Decomposition efficiency of genistin family in roasted soy flour: 25.7%
  Decomposition efficiency of genistin family in soymilk: not detected
[8]
  Decomposition efficiency of genistin family in roasted soy flour: 12.0%
  Decomposition efficiency of genistin family in soymilk: not detected
[9]
  Decomposition efficiency of genistin family in roasted soy flour: 5.5%
  Decomposition efficiency of genistin family in soymilk: not detected
[10]
  Decomposition efficiency of genistin family in roasted soy flour: 50.3%
  Decomposition efficiency of genistin family in soymilk: 31.2%
[11]
  Decomposition efficiency of genistin family in concentrated soybean protein: 49.7%
  Decomposition efficiency of genistin family in defatted soybean: 37.0%
[12]
  Decomposition efficiency of genistin family in concentrated soybean protein: 22.2%
  Decomposition efficiency of genistin family in defatted soybean: 0.9%
[13]
  Decomposition efficiency of genistin family in concentrated soybean protein: 15.6%
  Decomposition efficiency of genistin family in defatted soybean: 1.0%
[14]
  Decomposition efficiency of genistin family in concentrated soybean protein: 5.3%
  Decomposition efficiency of genistin family in defatted soybean: 1.0%
[15]
  Decomposition efficiency of genistin family in concentrated soybean protein: 54.5%
  Decomposition efficiency of genistin family in defatted soybean: 1.3%
[16]
  Decomposition efficiency of genistin family in roasted soy flour: 50.2%
  Decomposition efficiency of genistin family in soymilk: 31.0%
[17]
  Decomposition efficiency of genistin family in roasted soy flour: 3.7%
  Decomposition efficiency of genistin family in soymilk: not detected
[18]
  Decomposition efficiency of genistin family in roasted soy flour: 5.6%
  Decomposition efficiency of genistin family in soymilk: not detected
[19]
  Decomposition efficiency of genistin family in roasted soy flour: 1.2%
  Decomposition efficiency of genistin family in soymilk: not detected
[20]
  Decomposition efficiency of genistin family in roasted soy flour: 51.7%
  Decomposition efficiency of genistin family in soymilk: 34.4%
[21]
  Decomposition efficiency of genistin family in concentrated soybean protein: 50.1%
  Decomposition efficiency of genistin family in defatted soybean: 38.0%
[22]
  Decomposition efficiency of genistin family in concentrated soybean protein: 7.0%
  Decomposition efficiency of genistin family in defatted soybean: 0.0%
[23]
  Decomposition efficiency of genistin family in concentrated soybean protein: 0.8%
  Decomposition efficiency of genistin family in defatted soybean: 0.0%
[24]
  Decomposition efficiency of genistin family in concentrated soybean protein: not detected
  Decomposition efficiency of genistin family in defatted soybean: 0.0%
[25]
  Decomposition efficiency of genistin family in concentrated soybean protein: 52.3%
  Decomposition efficiency of genistin family in defatted soybean: 0.0%
[26]
  Decomposition efficiency of genistin family in roasted soy flour: 49.7%
  Decomposition efficiency of genistin family in soymilk: 31.6%
[27]
  Decomposition efficiency of genistin family in roasted soy flour: 1.2%
  Decomposition efficiency of genistin family in soymilk: not detected
[28]
  Decomposition efficiency of genistin family in roasted soy flour: not detected
  Decomposition efficiency of genistin family in soymilk: not detected
[29]
  Decomposition efficiency of genistin family in roasted soy flour: not detected
  Decomposition efficiency of genistin family in soymilk: not detected
[30]
  Decomposition efficiency of genistin family in roasted soy flour: 54.0%
  Decomposition efficiency of genistin family in soymilk: 37.4%
[31]
  Decomposition efficiency of genistin family in concentrated soybean protein: 49.8%
  Decomposition efficiency of genistin family in defatted soybean: 37.0%
[32]
  Decomposition efficiency of genistin family in concentrated soybean protein: not detected
  Decomposition efficiency of genistin family in defatted soybean: 0.0%
[33]
  Decomposition efficiency of genistin family in concentrated soybean protein: not detected
  Decomposition efficiency of genistin family in defatted soybean: 1.8%
[34]
  Decomposition efficiency of genistin family in concentrated soybean protein: not detected
  Decomposition efficiency of genistin family in defatted soybean: 3.3%
[35]
  Decomposition efficiency of genistin family in concentrated soybean protein: 50.8%
  Decomposition efficiency of genistin family in defatted soybean: 28.2%
[36]
  Decomposition efficiency of genistin family in roasted soy flour: 49.7%
  Decomposition efficiency of genistin family in soymilk: 30.7%
[37]
  Decomposition efficiency of genistin family in roasted soy flour: not detected
  Decomposition efficiency of genistin family in soymilk: not detected
[38]
  Decomposition efficiency of genistin family in roasted soy flour: not detected
  Decomposition efficiency of genistin family in soymilk: not detected
[39]
  Decomposition efficiency of genistin family in roasted soy flour: not detected
  Decomposition efficiency of genistin family in soymilk: not detected
[40]
  Decomposition efficiency of genistin family in roasted soy flour: 50.7%
  Decomposition efficiency of genistin family in soymilk: 44.4%
[41]
  Decomposition efficiency of genistin family in concentrated soybean protein: 49.7%
  Decomposition efficiency of genistin family in defatted soybean: 37.0%
[42]
  Decomposition efficiency of genistin family in concentrated soybean protein: 29.6%
  Decomposition efficiency of genistin family in defatted soybean: 9.6%
[43]
  Decomposition efficiency of genistin family in concentrated soybean protein: 30.3%
  Decomposition efficiency of genistin family in defatted soybean: 22.1%
[44]
  Decomposition efficiency of genistin family in concentrated soybean protein: 32.3%
  Decomposition efficiency of genistin family in defatted soybean: 35.3%
[45]
  Decomposition efficiency of genistin family in concentrated soybean protein: 51.9%
  Decomposition efficiency of genistin family in defatted soybean: 57.8%
[46]
  Decomposition efficiency of genistin family in roasted soy flour: 50.2%
  Decomposition efficiency of genistin family in soymilk: 31.0%
[47]
  Decomposition efficiency of genistin family in roasted soy flour: 7.8%
  Decomposition efficiency of genistin family in soymilk: 10.6%
[48]
  Decomposition efficiency of genistin family in roasted soy flour: 9.1%
  Decomposition efficiency of genistin family in soymilk: 24.3%
[49]
  Decomposition efficiency of genistin family in roasted soy flour: 18.4%
  Decomposition efficiency of genistin family in soymilk: 43.9%
[50]
  Decomposition efficiency of genistin family in roasted soy flour: 52.2%
  Decomposition efficiency of genistin family in soymilk: 64.5%
